Data from ChEMBL document CHEMBL1201862, “PubChem BioAssay data set” (2004).
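Where inhibition never reached the appropriate level, the endpoint shown equals the highest concentration tested. Otherwise, values were interpolated linearly from a five-concentration, 48-hour dose response in 96-well plates. Here, GI50 denotes the concentration required for 50% inhibition of growth.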 Active and inactive are the calls of the source. Cut-off read from the data, not from the text of the source: active = GI50 up to about 1.1 µM and inactive = higher. Peptide text beside a SMILES is read from it. * marks the point of attachment. Boc = CC(C)(C)OC(=O)*

Key:
Test in all cases: NCI anticancer screen, dose series, 48 h
SF-295 = system: SF-295
PC-3 = system: PC-3
UACC-257 = system: UACC-257
HOP-92 = system: HOP-92
SF-268 = system: SF-268
SK-MEL-28 = system: SK-MEL-28
HT-29 = system: HT-29
OVCAR-4 = system: OVCAR-4
CCRF-CEM = system: CCRF-CEM
RXF 393 = system: RXF 393
CAKI-1 = system: CAKI-1
MDA-MB-231 = system: MDA-MB-231
SN12C = system: SN12C
NCI-H23 = system: NCI-H23
SNB-19 = system: SNB-19
UO-31 = system: UO-31
NCI-H460 = system: NCI-H460
TK-10 = system: TK-10
OVCAR-5 = system: OVCAR-5

Measured: GI50

Nc1ccc(-c2nc3ccccc3s2)cc1F
inactive: SF-295 25.8 µM | PC-3 21.4 µM | UACC-257 39.6 µM | HOP-92 45.4 µM | SF-268 34 µM | SK-MEL-28 46.6 µM | HT-29 29.2 µM | OVCAR-4 18.7 µM | CCRF-CEM 5.47 µM | RXF 393 27.2 µM | CAKI-1 19.5 µM | MDA-MB-231 13.6 µM | SN12C 27.7 µM | NCI-H23 52.1 µM | SNB-19 19.2 µM | UO-31 14.2 µM

O=C1C(N2CCCC2)=CC(=O)c2c(O)c(N3CCCC3)c(Cl)c(O)c21
inactive: SF-295 > 10 µM | PC-3 > 10 µM | UACC-257 > 10 µM | HOP-92 > 10 µM | SF-268 > 10 µM | SK-MEL-28 > 10 µM | HT-29 > 10 µM | NCI-H460 > 10 µM | OVCAR-4 > 10 µM | CCRF-CEM > 10 µM | RXF 393 > 10 µM | CAKI-1 > 10 µM | MDA-MB-231 > 10 µM | TK-10 > 10 µM | SN12C > 10 µM | NCI-H23 > 10 µM | SNB-19 > 10 µM | UO-31 > 10 µM

O=C(O)c1cccc(S(=O)(=O)NN2C(=O)CSC2c2ccccc2)c1 (stereo unspecified)
inactive: SF-295 > 100 µM | PC-3 > 100 µM | UACC-257 > 100 µM | HOP-92 > 100 µM | SF-268 > 100 µM | SK-MEL-28 > 100 µM | HT-29 > 100 µM | NCI-H460 > 100 µM | CCRF-CEM > 100 µM | RXF 393 > 100 µM | CAKI-1 > 100 µM | OVCAR-5 > 100 µM | MDA-MB-231 > 100 µM | TK-10 > 100 µM | SN12C > 100 µM | NCI-H23 > 100 µM | SNB-19 > 100 µM | UO-31 > 100 µM

CC(C)COP(=O)(OCC(C)C)C(NS(=O)(=O)c1ccccc1)(C(F)(F)F)C(F)(F)F
inactive: SF-295 5.6 µM | PC-3 3.68 µM | UACC-257 4.24 µM | HOP-92 2.2 µM | SF-268 7.21 µM | SK-MEL-28 13.6 µM | HT-29 4.44 µM | OVCAR-4 3.4 µM | CCRF-CEM 3.36 µM | RXF 393 3.96 µM | CAKI-1 5.52 µM | OVCAR-5 14.2 µM | MDA-MB-231 2.04 µM | TK-10 3.68 µM | SN12C 3.22 µM | NCI-H23 3.81 µM | SNB-19 10.2 µM | UO-31 2.22 µM

CCOP(=O)(OCC)/C(C#N)=C/c1c[nH]c2ccccc12
inactive: SF-295 > 100 µM | PC-3 > 100 µM | UACC-257 > 100 µM | HOP-92 > 100 µM | SF-268 > 100 µM | SK-MEL-28 > 100 µM | HT-29 > 100 µM | NCI-H460 > 100 µM | OVCAR-4 > 100 µM | RXF 393 > 100 µM | CAKI-1 > 100 µM | OVCAR-5 > 100 µM | MDA-MB-231 > 100 µM | TK-10 > 100 µM | SN12C > 100 µM | NCI-H23 > 100 µM | SNB-19 > 100 µM | UO-31 45.8 µM

O=C1/C(=C\c2cccc(Oc3ccccc3)c2)S(=O)(=O)C(c2ccccc2)N1Cc1ccccc1 (stereo unspecified)
inactive: SF-295 55.8 µM | PC-3 24.7 µM | UACC-257 22.9 µM | HOP-92 19.3 µM | SK-MEL-28 29.8 µM | NCI-H460 15.1 µM | CCRF-CEM 24.5 µM | RXF 393 27 µM | CAKI-1 26.6 µM | OVCAR-5 57 µM | MDA-MB-231 25.6 µM | TK-10 33.6 µM | SN12C 26.6 µM | NCI-H23 28 µM | SNB-19 21.4 µM | UO-31 18.7 µM

Oc1ccc(NCc2cc(O)ccc2O)cc1
inactive: SF-295 20.7 µM | PC-3 14.9 µM | UACC-257 14.9 µM | HOP-92 13.1 µM | SF-268 17.2 µM | SK-MEL-28 22.3 µM | HT-29 22.6 µM | NCI-H460 18.5 µM | OVCAR-4 16.5 µM | RXF 393 15.3 µM | CAKI-1 16 µM | OVCAR-5 18.3 µM | MDA-MB-231 13.2 µM | TK-10 16 µM | SN12C 15.3 µM | NCI-H23 18.1 µM | SNB-19 18.5 µM | UO-31 14.1 µM

OC(c1cccnc1)C(F)(F)c1nc2ccccc2o1 (stereo unspecified)
inactive: PC-3 > 100 µM | UACC-257 > 100 µM | HOP-92 > 100 µM | SF-268 > 100 µM | SK-MEL-28 > 100 µM | HT-29 > 100 µM | NCI-H460 > 100 µM | OVCAR-4 > 100 µM | CCRF-CEM > 100 µM | RXF 393 > 100 µM | CAKI-1 > 100 µM | MDA-MB-231 > 100 µM | TK-10 > 100 µM | NCI-H23 > 100 µM | SNB-19 > 100 µM | UO-31 > 100 µM

CSCCC(NC(=O)C(CC(C)C)NC(=O)CNC(=O)OC(C)(C)C)C(=O)N(C)C (stereo not drawn) (Boc-Gly-Leu-Met-NMe2; configuration not given here)
inactive: SF-295 > 100 µM | PC-3 > 100 µM | UACC-257 > 100 µM | HOP-92 > 100 µM | SF-268 > 100 µM | SK-MEL-28 > 100 µM | HT-29 > 100 µM | OVCAR-4 > 100 µM | CCRF-CEM > 100 µM | RXF 393 > 100 µM | CAKI-1 > 100 µM | OVCAR-5 > 100 µM | MDA-MB-231 > 100 µM | TK-10 > 100 µM | SN12C > 100 µM | NCI-H23 > 100 µM | SNB-19 > 100 µM | UO-31 > 100 µM

NC(=S)N/N=C1\CCc2ccccc2C1
inactive: SF-295 > 100 µM | PC-3 > 100 µM | UACC-257 > 100 µM | HOP-92 > 100 µM | SF-268 > 100 µM | SK-MEL-28 > 100 µM | HT-29 > 100 µM | NCI-H460 > 100 µM | OVCAR-4 > 100 µM | CCRF-CEM 70.8 µM | RXF 393 80.4 µM | OVCAR-5 > 100 µM | MDA-MB-231 > 100 µM | TK-10 > 100 µM | SN12C > 100 µM | NCI-H23 > 100 µM | SNB-19 > 100 µM | UO-31 > 100 µM

COC(CNC(=O)C(C)NC(=O)/C=C/c1ccccc1)OC (stereo unspecified)
inactive: SF-295 > 100 µM | PC-3 > 100 µM | UACC-257 > 100 µM | HOP-92 > 100 µM | SF-268 > 100 µM | HT-29 > 100 µM | NCI-H460 > 100 µM | CCRF-CEM > 100 µM | RXF 393 > 100 µM | CAKI-1 > 100 µM | OVCAR-5 > 100 µM | MDA-MB-231 > 100 µM | TK-10 > 100 µM | SN12C > 100 µM | NCI-H23 > 100 µM | SNB-19 > 100 µM | UO-31 > 100 µM
